The experiment addresses T1, C-X-C chemokine receptor type 3 (Homo sapiens, UniProt P49682).
T1 sequence (P49682 whole entry): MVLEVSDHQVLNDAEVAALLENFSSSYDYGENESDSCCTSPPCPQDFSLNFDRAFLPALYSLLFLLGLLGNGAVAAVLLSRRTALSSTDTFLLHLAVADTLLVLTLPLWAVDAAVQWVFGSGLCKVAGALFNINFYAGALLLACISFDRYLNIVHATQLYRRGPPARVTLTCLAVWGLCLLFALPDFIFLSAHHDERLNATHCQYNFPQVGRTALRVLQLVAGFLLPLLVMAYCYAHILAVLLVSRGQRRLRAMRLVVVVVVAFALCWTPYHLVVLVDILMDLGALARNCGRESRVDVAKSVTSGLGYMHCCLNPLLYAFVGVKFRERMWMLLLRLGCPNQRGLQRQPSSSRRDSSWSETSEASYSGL
The experiment in a line: Antagonist activity at human CXCR3. It is filed as functional.

For `CNC(=O)c1cnc(N2CCN(C3CCN(Cc4ccc(Cl)cc4Cl)CC3)[C@@H](C)C2)c(Cl)c1`, the IC50 (in general, the concentration that gives 50% inhibition) was 17 nM. In other words, the double-digit nanomolar range.

`CNC(=O)c1cnc(N2CCN(C3CCN(Cc4ccc(C(F)(F)F)cc4)CC3)[C@@H](C)C2)c(Cl)c1` showed an IC50 of 63 nM.

The molecule `CNC(=O)c1cnc(N2CCN(C3CCN(Cc4ccc(Cl)cc4F)CC3)[C@@H](C)C2)c(Cl)c1` gave an IC50 of 18 nM.

In turn, `CNC(=O)c1cnc(N2CCN(C3CCN(Cc4ccc(C)cc4)CC3)[C@@H](C)C2)c(Cl)c1` gave an IC50 of 87 nM.

For `CNC(=O)c1cnc(N2CCN(C3CCN(Cc4ccc(S(C)(=O)=O)cc4)CC3)[C@@H](C)C2)c(Cl)c1`, the IC50 is > 10000 nM.

`CNC(=O)c1cnc(N2CCN(C3CCN(Cc4ccccn4)CC3)[C@@H](C)C2)c(Cl)c1` returned an IC50 of 7990 nM. That is a single-digit micromolar value.

Consider `CNC(=O)c1cnc(N2CCN(C3CCN(Cc4ccc[nH]4)CC3)[C@@H](C)C2)c(Cl)c1`, for which the IC50 amounted to 8060 nM.

Consider `CNC(=O)c1cnc(N2CCN(C3CCN(Cc4cccs4)CC3)[C@@H](C)C2)c(Cl)c1`, for which the IC50 came to 1980 nM.

In turn, `CNC(=O)c1cnc(N2CCN(C3CCN(Cc4ccc(Cl)cc4)CC3)[C@@H](C)C2)c(Cl)c1` came in with an IC50 of 32 nM.

Consider `CNC(=O)c1cnc(N2CCN(C3CCN(Cc4ccco4)CC3)[C@@H](C)C2)c(Cl)c1`, for which the IC50 worked out at 8100 nM. Compared with the last molecule, the IC50 is about 250-fold higher.

Molecule `CNC(=O)c1cnc(N2CCN(C3CCN(Cc4ccc(F)cc4Cl)CC3)[C@@H](C)C2)c(Cl)c1` came in with an IC50 of 58 nM.

In turn, `CNC(=O)c1cnc(N2CCN(C3CCN(C(=O)c4ccc(Cl)cc4)CC3)[C@@H](C)C2)c(Cl)c1` registered an IC50 of 210 nM.

For the molecule `CNC(=O)c1cnc(N2CCN(C3CCN(CC(=O)c4ccc(F)cc4)CC3)[C@@H](C)C2)c(Cl)c1`, the IC50 is > 10000 nM.

`CNC(=O)c1cnc(N2CCN(C3CCN(C(=O)c4ccnc5cc(Cl)ccc45)CC3)[C@@H](C)C2)c(Cl)c1`: the IC50 is > 10000 nM.

`C[C@H]1CN(c2ncc(C(=O)NCc3ccc(Cl)c(Cl)c3)cc2Cl)CCN1C1CCN(Cc2ccc(Cl)cc2)CC1` had an IC50 of 16 nM.

Consider `C[C@H]1CN(C2CCN(Cc3ccc(Cl)cc3)CC2)CCN1c1ncc(C(=O)NCc2ccc(Cl)c(Cl)c2)cc1Cl`, for which it took 39 nM to reach half-maximal inhibition (IC50).

`C[C@@H]1CN(C2CCN(Cc3ccc(Cl)cc3)CC2)CCN1c1ncc(C(=O)NCc2ccc(Cl)c(Cl)c2)cc1Cl`: the IC50 is 220 nM. This IC50 lies about 5.6-fold higher than the previous one.

`CC1CN(C2CCN(Cc3ccc(Cl)cc3)CC2)CCN1c1ccc(C(=O)NCc2ccc(F)c(F)c2)cn1` (centres undefined): the IC50 turned out to be 2700 nM.

Regarding `CNC(=O)c1cnc(N2CCN(C3CCN(Cc4ccc(Cl)cc4)CC3C)CC2)c(Cl)c1` (centres undefined), the IC50 came to 64 nM.

For the molecule `CNC(=O)c1cnc(N2CCN(C3CCN(Cc4ccc(Cl)cc4)C(C)C3)CC2)c(Cl)c1` (centres undefined), half-maximal inhibition (IC50) required 31 nM.

Consider `CC1(N2CCN(c3ncc(C(=O)NCc4ccc(Cl)c(Cl)c4)cc3Cl)CC2)CCN(Cc2ccc(Cl)cc2)CC1`, for which the IC50 stood at 27 nM.

For `O=C(NCc1ccc(F)c(F)c1)c1cnc(N2CCN(C3CCN(Cc4ccc(Cl)cc4)CC3)C(=O)C2)c(Cl)c1`, the IC50 turned out to be 1400 nM.

With `CNC(=O)c1cnc(N2CCN(C3CCN(Cc4ccc(Cl)cc4)C(=O)C3)[C@@H](C)C2)c(Cl)c1` (some centres undefined), the IC50 is 7000 nM.

As for `CNC(=O)c1cnc(N2CCC(N3CCN(Cc4ccc(Cl)cc4)C[C@@H]3C)CC2)c(Cl)c1`, inhibition was half-maximal at 12500 nM (IC50).

Molecule `CNC(=O)c1cnc(N2CCC(N3CCN(Cc4ccc(Cl)cc4)C[C@H]3C)CC2)c(Cl)c1` came in with an IC50 of 7350 nM.

As for `CNC(=O)c1cnc(N2CCC(N3CCN(Cc4ccc(Cl)cc4)CC3)C(C)C2)c(Cl)c1` (centres undefined), the IC50 came out at 280 nM.

On to `COC(=O)c1cnc(N2CCN(C3CCN(Cc4ccc(Cl)cc4)CC3)[C@@H](C)C2)c(Cl)c1`, for which the IC50 worked out at 520 nM.

`C[C@H]1CN(c2ncc(C(=N)N)cc2Cl)CCN1C1CCN(Cc2ccc(Cl)cc2)CC1` had an IC50 of 80 nM. This IC50 is about 6.5-fold lower than that of the molecule before.

On to `CCNC(=N)c1cnc(N2CCN(C3CCN(Cc4ccc(Cl)cc4)CC3)[C@@H](C)C2)c(Cl)c1`, for which the IC50 came out at 83 nM.

As to `CC(=O)Nc1cnc(N2CCN(C3CCN(Cc4ccc(Cl)cc4)CC3)[C@@H](C)C2)c(Cl)c1`, inhibition was half-maximal at 8 nM (IC50).

Turning to `C[C@H]1CN(c2ncc(NC(=O)C3CC3)cc2Cl)CCN1C1CCN(Cc2ccc(Cl)cc2)CC1`, the IC50 stood at 20 nM.

On to `C[C@H]1CN(c2ncc(C(N)=O)cc2Cl)CCN1C1CCN(Cc2ccc(Cl)cc2)CC1`, for which the IC50 is 39 nM.

`CCNC(=O)c1cnc(N2CCN(C3CCN(Cc4ccc(Cl)cc4)CC3)[C@@H](C)C2)c(Cl)c1` yielded an IC50 of 2.3 nM.

Molecule `CC(C)NC(=O)c1cnc(N2CCN(C3CCN(Cc4ccc(Cl)cc4)CC3)[C@@H](C)C2)c(Cl)c1` returned a half-inhibitory concentration (IC50) of 5 nM.

`C[C@H]1CN(c2ncc(C(=O)NCC3CCCCC3)cc2Cl)CCN1C1CCN(Cc2ccc(Cl)cc2)CC1` had an IC50 of 2.4 nM. Compared with the last molecule, the IC50 is about 2.1-fold lower.

Molecule `C[C@H]1CN(c2ncc(C(=O)Nc3ccc(F)c(F)c3)cc2Cl)CCN1C1CCN(Cc2ccc(Cl)cc2)CC1` yielded an IC50 of 22 nM.

In the case of `C[C@H]1CN(c2ncc(C(=O)N3CCCCC3)cc2Cl)CCN1C1CCN(Cc2ccc(Cl)cc2)CC1`, the midpoint of inhibition, the IC50, lay at 900 nM. This IC50 is about 41-fold higher than that of the molecule before.

`C[C@H]1CN(c2ncc(C(=O)N3CCC3)cc2Cl)CCN1C1CCN(Cc2ccc(Cl)cc2)CC1` registered an IC50 of 630 nM.

Turning to `CC[C@H]1CN(c2ncc(C(=O)NC)cc2Cl)CCN1C1CCN(Cc2ccc(Cl)cc2)CC1`, the midpoint of inhibition, the IC50, lay at 3 nM.

For `CNC(=O)c1cnc(N2CCN(C3CCN(Cc4ccc(Cl)cc4)CC3)[C@@H](CC(C)C)C2)c(Cl)c1`, the IC50 is 260 nM.

Take `CNC(=O)c1cnc(N2CCN(C3CCN(Cc4ccc(Cl)cc4)CC3)[C@@H](c3ccccc3)C2)c(Cl)c1`: the IC50 worked out at 830 nM.

In turn, `CNC(=O)c1cnc(N2CCN(C3CCN(Cc4ccc(Cl)cc4)CC3)C(C(=O)OC)C2)c(Cl)c1` (centres undefined) gave an IC50 of 140 nM.

`CNC(=O)c1cnc(N2CCN(C3CCN(Cc4ccc(Cl)cc4)CC3)C(CO)C2)c(Cl)c1` (centres undefined) displayed an IC50 of 910 nM.

With `CNC(=O)c1cnc(N2CCN(C3CCN(Cc4ccc(Cl)cc4)CC3)C(COC)C2)c(Cl)c1` (centres undefined), the midpoint of inhibition, the IC50, lay at 3100 nM.

Consider `CNC(=O)c1cnc(N2CCN(C3CCN(Cc4ccc(Cl)cc4)CC3)C(C(=O)O)C2)c(Cl)c1` (centres undefined), for which the IC50 is > 50000 nM.

In the case of `CNC(=O)c1cnc(N2CCN(C3CCN(Cc4ccc(Cl)cc4)CC3)C(C(=O)NC)C2)c(Cl)c1` (centres undefined), it took 8900 nM to reach half-maximal inhibition (IC50).

With `CCNC(=O)c1cnc(N2CCN(C3CCN(Cc4ccc(Cl)cc4)CC3)[C@@H](C(C)C)C2)c(Cl)c1`, half-maximal inhibition (IC50) was put at 23 nM.

For the molecule `CCNC(=O)c1cnc(N2CCN(C3CCN(Cc4ccc(Cl)cc4F)CC3)C(C3CC3)C2)c(Cl)c1` (centres undefined), inhibition was half-maximal at 32 nM (IC50).

Regarding `CNC(=O)c1cnc(N2CCN(C3CCN(Cc4ccc(Cl)cc4)CC3)CC2)c(Cl)c1`, the IC50 turned out to be 560 nM.

As to `O=C(NCc1ccc(Cl)c(Cl)c1)c1cnc(N2CCC(N3CCN(Cc4ccc(Cl)cc4)CC3)CC2)c(Cl)c1`, the IC50 is 4500 nM.

Consider `O=C(NCc1ccc(Cl)c(Cl)c1)c1cnc(N2CCN(C3CCN(Cc4ccc(Cl)cc4)CC3)CC2)c(Cl)c1`, for which the 50% inhibitory concentration (IC50) is 35 nM.

`CNC(=O)c1cnc(N2CCN(C3CCN(C(C)c4ccc(Cl)cc4)CC3)[C@@H](C)C2)c(Cl)c1` (single isomer, unassigned; isomer 1) gave an IC50 of 5 nM.

As to `CNC(=O)c1cnc(N2CCN(C3CCN(C4CCc5cc(Cl)ccc54)CC3)[C@@H](C)C2)c(Cl)c1` (single isomer, unassigned; isomer 1), the IC50 was 29 nM.

In turn, `CNC(=O)c1cnc(N2CCN(C3CCN(C4CCc5cc(Cl)ccc54)CC3)[C@@H](C)C2)c(Cl)c1` (single isomer, unassigned; isomer 2) came in with an IC50 of 35 nM.

The values are drawn from ChEMBL document CHEMBL1681635, “II. SAR studies of pyridyl-piperazinyl-piperidine derivatives as CXCR3 chemokine antagonists” (Bioorg Med Chem Lett, 2011).
